What was measured:
[1] = molecular target: T1, Mcl-1 (myeloid cell leukemia 1) (Homo sapiens, UniProt Q07820); experiment: surface plasmon resonance (SPR); assay type: binding
T1 construct: gene MCL1

[2] = molecular target: T1, Mcl-1 (myeloid cell leukemia 1); experiment: surface plasmon resonance (SPR), reference Mcl-1 inhibitor (Supplementary Fig. S2); assay type: binding

T1 sequence (Q07820 whole entry): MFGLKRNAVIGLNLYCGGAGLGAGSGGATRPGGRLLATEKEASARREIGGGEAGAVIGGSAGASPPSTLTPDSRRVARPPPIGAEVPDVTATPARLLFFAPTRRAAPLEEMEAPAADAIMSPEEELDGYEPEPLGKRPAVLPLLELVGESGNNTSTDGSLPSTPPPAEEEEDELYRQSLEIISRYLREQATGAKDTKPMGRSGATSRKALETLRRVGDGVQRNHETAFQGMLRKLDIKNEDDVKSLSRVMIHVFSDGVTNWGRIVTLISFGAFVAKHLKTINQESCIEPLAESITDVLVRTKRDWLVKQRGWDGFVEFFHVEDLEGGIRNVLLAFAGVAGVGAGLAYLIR

| Kd [1] | Compound | Kd [2] |
| --- | --- | --- |
| 3.91 µM | O=C(O)C[C@H](O)C[C@H](O)/C=C/c1c(C2CC2)nc2ccccc2c1-c1ccc(F)cc1 [PITA, Pitavastatin] |  |
|  | Cc1cc2c(C(C)C)c(O)c(O)c(C=O)c2c(O)c1-c1c(C)cc2c(C(C)C)c(O)c(O)c(C=O)c2c1O [AT101] | 9.48 µM |

From PMC12548168, “Pitavastatin is a novel Mcl-1 inhibitor that overcomes paclitaxel resistance in triple-negative breast cancer” (Experimental Hematology & Oncology, 2025)
